The source made the active and inactive calls. The rule behind the calls is not given here. Where only a bound is given, the exact number is not on record here.

The target of experiment [1] is T1, Phosphatidylinositol 3,4,5-trisphosphate 5-phosphatase 2 (Homo sapiens) (UniProt O15357).
T1 sequence (whole entry): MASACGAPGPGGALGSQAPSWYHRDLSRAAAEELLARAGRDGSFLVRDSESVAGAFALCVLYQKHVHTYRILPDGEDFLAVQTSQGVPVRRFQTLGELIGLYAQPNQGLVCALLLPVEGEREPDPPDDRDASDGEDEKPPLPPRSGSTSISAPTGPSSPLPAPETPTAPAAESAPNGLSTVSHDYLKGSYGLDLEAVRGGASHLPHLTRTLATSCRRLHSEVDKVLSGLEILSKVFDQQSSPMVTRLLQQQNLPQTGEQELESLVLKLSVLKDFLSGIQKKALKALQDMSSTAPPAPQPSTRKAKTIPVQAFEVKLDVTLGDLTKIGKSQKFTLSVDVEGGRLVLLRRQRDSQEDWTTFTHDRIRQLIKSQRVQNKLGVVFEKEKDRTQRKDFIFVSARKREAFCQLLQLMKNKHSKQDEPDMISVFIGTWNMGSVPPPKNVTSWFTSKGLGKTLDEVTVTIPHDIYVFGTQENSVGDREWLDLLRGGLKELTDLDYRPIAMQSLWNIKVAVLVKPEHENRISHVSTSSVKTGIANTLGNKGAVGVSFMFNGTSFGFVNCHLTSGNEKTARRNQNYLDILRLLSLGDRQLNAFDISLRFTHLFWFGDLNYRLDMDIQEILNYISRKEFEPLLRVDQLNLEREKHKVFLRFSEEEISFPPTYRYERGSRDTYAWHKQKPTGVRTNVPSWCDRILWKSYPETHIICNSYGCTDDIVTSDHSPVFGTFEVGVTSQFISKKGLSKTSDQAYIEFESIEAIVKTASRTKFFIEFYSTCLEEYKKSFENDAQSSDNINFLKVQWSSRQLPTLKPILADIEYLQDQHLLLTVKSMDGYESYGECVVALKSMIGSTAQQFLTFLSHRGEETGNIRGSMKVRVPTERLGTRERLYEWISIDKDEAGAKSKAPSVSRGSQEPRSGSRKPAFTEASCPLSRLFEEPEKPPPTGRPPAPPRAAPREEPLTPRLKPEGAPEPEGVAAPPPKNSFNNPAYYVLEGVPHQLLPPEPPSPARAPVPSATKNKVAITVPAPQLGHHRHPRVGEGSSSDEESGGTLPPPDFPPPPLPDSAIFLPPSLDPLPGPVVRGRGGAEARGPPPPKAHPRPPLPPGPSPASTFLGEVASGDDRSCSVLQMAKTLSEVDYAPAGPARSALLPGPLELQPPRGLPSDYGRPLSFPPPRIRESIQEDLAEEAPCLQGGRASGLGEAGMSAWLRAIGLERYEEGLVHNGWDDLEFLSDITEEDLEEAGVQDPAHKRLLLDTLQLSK
In words: Binding affinity to recombinant human N-terminal His-tagged SHIP2 (419 to 832 residues) expressed in Escherichia coli Rosetta2 (DE3) cells assessed as increase in release of phosphate at 100 uM incubated for 10 mins by phosphate release assay.

Experiment [2] addresses T2, Phosphatidylinositol 3,4,5-trisphosphate 5-phosphatase 2 (Homo sapiens, UniProt O15357).
T2 sequence (O15357 whole entry): T1 sequence (whole entry)
Briefly: Displacement of 2FAMInsP5 from recombinant human N-terminal His-tagged SHIP2 (419 to 832 residues) expressed in Escherichia coli Rosetta2 (DE3) cells by fluorescence polarization assay. For orientation: Polarisation of emitted light reports the rotation of a fluorescent probe.

Experiment [3] deals with T3, Inositol polyphosphate-5-phosphatase A (Homo sapiens, UniProt Q14642).
T3 sequence (Q14642 whole entry): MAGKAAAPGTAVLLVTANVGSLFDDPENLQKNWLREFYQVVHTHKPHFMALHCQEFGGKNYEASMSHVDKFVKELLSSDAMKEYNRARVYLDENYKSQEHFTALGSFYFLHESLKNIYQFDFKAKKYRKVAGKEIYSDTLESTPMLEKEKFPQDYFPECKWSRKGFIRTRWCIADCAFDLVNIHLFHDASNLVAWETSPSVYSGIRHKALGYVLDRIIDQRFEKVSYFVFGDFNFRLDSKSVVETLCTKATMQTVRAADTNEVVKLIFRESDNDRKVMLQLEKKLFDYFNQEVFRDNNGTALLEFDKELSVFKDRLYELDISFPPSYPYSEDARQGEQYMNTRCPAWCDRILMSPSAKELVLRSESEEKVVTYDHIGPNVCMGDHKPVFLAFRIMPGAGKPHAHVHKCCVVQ
Briefly: Inhibition of recombinant human brain INPP5A expressed in Escherichia coli incubated for 10 mins by malachite green reagent based phosphate assay.

Experiment [4] addresses T1, Phosphatidylinositol 3,4,5-trisphosphate 5-phosphatase 2 (Homo sapiens). Briefly: Substrate activity at recombinant human N-terminal His-tagged SHIP2 (419 to 832 residues) expressed in Escherichia coli Rosetta2 (DE3) cells assessed as 3-OH-Bz(1,2,4)P3 product formation at 100 uM incubated for 2 hrs in presence of AS1949490 by fluorescence based HPLC analysis.
Experiment [5] shares this target. Briefly: Substrate activity at recombinant human N-terminal His-tagged SHIP2 (419 to 832 residues) expressed in Escherichia coli Rosetta2 (DE3) cells assessed as 1,2-diOH-Bz(3,4)P2 product formation at 100 uM incubated for 2 hrs in presence of AS1949490 by fluorescence based HPLC analysis.
The target of experiment [6] is T2, Phosphatidylinositol 3,4,5-trisphosphate 5-phosphatase 2. In words: Displacement of Ins(1,3,4,5)P4 from recombinant human N-terminal His-tagged SHIP2 (419 to 832 residues) expressed in Escherichia coli BL21 (DE3).
In experiment [7] the target is Type II inositol 1,4,5-trisphosphate 5-phosphatase (Homo sapiens, UniProt P32019). Briefly: Inhibition of recombinant human C-terminal His-tagged INPP5B (259 to 563 residues) expressed in Escherichia coli BL21 (DE3) incubated for 5 mins using Ins(1,4,5)P3 as substrate by malachite green reagent based phosphate assay.
Sequence of Type II inositol 1,4,5-trisphosphate 5-phosphatase (P32019 whole entry, the tested form may be a part): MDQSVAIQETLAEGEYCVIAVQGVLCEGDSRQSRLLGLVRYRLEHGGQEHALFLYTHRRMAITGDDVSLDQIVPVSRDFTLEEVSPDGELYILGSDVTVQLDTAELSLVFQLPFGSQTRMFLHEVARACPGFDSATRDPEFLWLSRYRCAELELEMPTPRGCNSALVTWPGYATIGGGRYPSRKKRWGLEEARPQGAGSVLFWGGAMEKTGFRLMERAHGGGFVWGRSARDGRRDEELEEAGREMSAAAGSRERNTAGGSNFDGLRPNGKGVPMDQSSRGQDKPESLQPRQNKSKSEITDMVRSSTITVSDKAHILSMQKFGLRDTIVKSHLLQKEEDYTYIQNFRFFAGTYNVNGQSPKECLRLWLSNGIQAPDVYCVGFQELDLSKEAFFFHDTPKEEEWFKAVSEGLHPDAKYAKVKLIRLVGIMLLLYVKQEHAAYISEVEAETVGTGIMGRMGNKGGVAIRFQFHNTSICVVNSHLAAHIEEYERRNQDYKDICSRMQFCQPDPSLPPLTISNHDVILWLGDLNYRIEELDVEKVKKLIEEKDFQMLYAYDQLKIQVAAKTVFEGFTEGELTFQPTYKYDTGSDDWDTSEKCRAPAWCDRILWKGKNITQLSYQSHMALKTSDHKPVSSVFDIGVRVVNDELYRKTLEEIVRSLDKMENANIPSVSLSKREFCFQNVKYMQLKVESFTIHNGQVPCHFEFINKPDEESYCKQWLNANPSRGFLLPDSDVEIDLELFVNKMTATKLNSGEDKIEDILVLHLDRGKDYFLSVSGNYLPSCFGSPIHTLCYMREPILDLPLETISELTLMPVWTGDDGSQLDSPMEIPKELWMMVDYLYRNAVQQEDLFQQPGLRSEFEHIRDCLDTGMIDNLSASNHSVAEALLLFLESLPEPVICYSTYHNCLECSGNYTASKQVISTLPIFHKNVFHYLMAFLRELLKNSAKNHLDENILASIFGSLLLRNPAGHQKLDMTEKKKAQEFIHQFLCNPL
Experiment [8] deals with T1, Phosphatidylinositol 3,4,5-trisphosphate 5-phosphatase 2 (Homo sapiens). In words: Substrate activity at recombinant human N-terminal His-tagged SHIP2 (419 to 832 residues) expressed in Escherichia coli Rosetta2 (DE3) cells assessed as 5-OH-Bz(1,2,4)P3 product formation at 100 uM incubated for 2 hrs in presence of AS1949490 by fluorescence based HPLC analysis.
The target is the same in experiment [9]. Briefly: Substrate activity at recombinant human N-terminal His-tagged SHIP2 (419 to 832 residues) expressed in Escherichia coli Rosetta2 (DE3) cells assessed as 5-OH-Bz(1,2,4)P3 product formation at 100 uM measured upto 4 hrs by fluorescence based HPLC analysis.
Experiment [10] has the same target. Briefly: Substrate activity at recombinant human N-terminal His-tagged SHIP2 (419 to 832 residues) expressed in Escherichia coli Rosetta2 (DE3) cells assessed as 5-OH-Bz(1,2,4)P3 product formation at 100 uM incubated for 2 hrs by fluorescence based HPLC analysis.
For experiment [11] the target is unchanged. Briefly: Substrate activity at recombinant human N-terminal His-tagged SHIP2 (419 to 832 residues) expressed in Escherichia coli Rosetta2 (DE3) cells assessed as 5-OH-Bz(1,2,4)P3 product formation at 100 uM incubated for 2 hrs with 100 nM to 1 mM of SHIP2 by fluorescence based HPLC analysis.
Experiment [12] shares this target. In words: Substrate activity at recombinant human N-terminal His-tagged SHIP2 (419 to 832 residues) expressed in Escherichia coli Rosetta2 (DE3) cells assessed as 5-OH-Bz(1,2,4)P3 product formation at 100 uM incubated for 12 hrs by fluorescence based HPLC analysis.
Experiment [13] has the same target. In words: Substrate activity at recombinant human N-terminal His-tagged SHIP2 (419 to 832 residues) expressed in Escherichia coli Rosetta2 (DE3) cells assessed as 5-OH-Bz(1,2,4)P3 product formation at 100 uM incubated for 2 hrs in presence of INS(1,3,4,5)P4 by fluorescence based HPLC analysis.
For experiment [14] the target is unchanged. In words: Substrate activity at recombinant human N-terminal His-tagged SHIP2 (419 to 832 residues) expressed in Escherichia coli Rosetta2 (DE3) cells assessed as 1,3-Di-OH-Bz(2,4)P2 product formation at 100 uM incubated for 2 hrs in presence of AS1949490 by fluorescence based HPLC analysis.

As usually defined, the IC50 is the concentration that inhibits the measured activity by half. As for `O=P(O)(O)Oc1cc(OP(=O)(O)O)cc(OP(=O)(O)O)c1`, the result in [1] was Active. In addition, the IC50 was found to be 11.3 µM in experiment [2] and 16 µM in [3].
On to `O=P(O)(O)Oc1ccc(OP(=O)(O)O)c(OP(=O)(O)O)c1OP(=O)(O)O`, for which the result in [4] was inactive. Moreover, the result in [1] and in experiment [5] was Active. Further, the IC50 stood at 2.78 µM in [2] and 98 µM in [3].
For the compound `O=P(O)(O)Oc1cccc(OP(=O)(O)O)c1OP(=O)(O)O`, the IC50 in experiment [6] is above 1000 µM; in experiment [2], 14.2 µM; in experiment [7], 33.5 µM; in experiment [3], 86 µM. The result in experiment [1] was Active.
On to `O=P(O)(O)Oc1cc(OP(=O)(O)O)c(OP(=O)(O)O)cc1OP(=O)(O)O`, for which the outcome in experiment [8] was inactive. Also, the result in [1], in [9], in experiment [10], in [11], in [12] and in [13] was Active. Besides, the IC50 came out at 1.02 µM in experiment [2] and 4 µM in [3].
For the compound `O=P(O)(O)Oc1ccc(OP(=O)(O)O)c(OP(=O)(O)O)c1`, the result in experiment [1] was Active. Further, the IC50 was found to be 7.02 µM in [2] and 14 µM in experiment [3].
`O=P(O)(O)Oc1ccc(OP(=O)(O)O)c(OP(=O)(O)O)c1O`: the result in experiment [14] was inactive. Further, the result in [5] was Active.
For `O=P(O)(O)Oc1cc(OP(=O)(O)O)c(OP(=O)(O)O)c(OP(=O)(O)O)c1`, the result in [1] was Active. Besides, the values for the IC50 in [2] and in [3] were 1.01 µM and 78 µM, respectively.

The values are drawn from ChEMBL document CHEMBL4342482 (ACS Med Chem Lett, 2020).
